CCCCCCCCCCCC[N+](C)(C)CCOc1ccccc1.[Br-]
solubility (mole fraction)
Settings	283.15 K	288.15 K	293.15 K	298.15 K	303.15 K	308.15 K	313.15 K	318.15 K	323.15 K
in DMAc	0.0168	0.0216	0.0306	0.0416	0.0492	0.0659	0.0786	0.105	0.121
in DMF	0.0238	0.0292	0.039	0.0467	0.0609	0.0714	0.0861	0.115	0.132
in DMSO	–	–	0.037	0.045	0.0551	0.0668	0.0826	0.103	0.124
in NMP	0.0215	0.0284	0.042	0.0531	0.0702	0.0854	0.108	0.137	0.169
in acetonitrile	0.00445	0.00562	0.00743	0.00991	0.0135	0.0188	0.0277	0.0415	0.0625
in ethanol	0.0832	0.107	0.13	0.157	0.179	0.204	0.227	0.251	0.275
in isobutanol	–	0.092	0.118	0.145	0.175	0.196	0.224	0.248	0.287
in isopropanol	0.0234	0.043	0.07	0.105	0.139	0.17	0.199	0.228	0.258
in n-butanol	0.0833	0.108	0.134	0.157	0.181	0.224	0.263	0.306	0.346
in n-pentanol	0.0801	0.108	0.13	0.164	0.192	0.232	0.272	0.329	0.373
in n-propanol	0.0834	0.107	0.131	0.157	0.181	0.211	0.238	0.263	0.287
in tert-butanol	–	–	–	0.0866	0.127	0.165	0.198	0.241	0.273
